“And” between values parts separate entries of the source, which are not always exact repeats. Equal entries are not always repeated.
Experiments:
ion channel of NMDA-R = system: ion channel of NMDA-R; parameters: method as in PMID 25451213; conditions: cited from earlier work
[1] = system: ion channel binding site of NMDA receptors; experiment: [^18F]PK-209 brain PET, test–retest and kinetic modeling; assay type: in vivo, human; conditions: for K i: net influx rate, individual subjects S1–S5
Method: In total, 20 PET scans were acquired on a Gemini TF-64 PET/CT scanner (Philips Medical Systems, Cleveland, OH, USA). Five subjects underwent [^18F]PK-209 test–retest (TRT) scans 31–61 days apart over a period of 211 days. Another five subjects underwent baseline and ketamine scans 13–161 days apart over a period of 258 days. At the start of each scan [^18F]PK-209 was injected as an intravenous bolus with a mean injected activity of 187 ± 7 MBq. All scans were performed between 12:00 and 15:00 h to minimize diurnal variation. Duration of daylight on each scan day was calculated to investigate seasonal changes in tracer binding. Dynamic PET data were acquired for 120 min and binned into 25 time frames (1 × 15, 3 × 5, 3 × 10, 4 × 60, 2 × 150, 2 × 300, 10 × 600 s). PET was followed by a low-dose CT (30 mAs, 120 kVp) for attenuation correction and localization. Data were reconstructed using a three-dimensional row action maximum likelihood reconstruction algorithm (3-D RAMLA). Acquired PET data were normalized and corrected for dead time, randoms, scatter, attenuation, and decay.
Prior to the PET studies, structural three-dimensional coronal T1-weighted magnetic resonance images (MRI) were acquired for all subjects on a 1.5T Sonata scanner (Siemens Medical Solutions, Erlangen, Germany) with 160 coronal slices using echo time 3.97 ms, repetition time 2700 ms, flip angle 8°, and voxel size 1.0 × 1.5 × 1.0 mm^3. Subject motion was checked by visual inspection of the alignment of intrasubject PET frames, and no frames were excluded due to excessive movement. T1-weighted MRI scans were co-registered to an average of the PET frames from ~ 4–70 min p.i. using VINCI software. The co-registered MRI scans were segmented into gray matter (GM), white matter, and extra-cerebral fluid, using PVE-lab. Subsequently, 68 regions of interest (ROIs), including whole brain, were derived from the Hammers atlas and used to extract GM time-activity curves (TACs). As a last step, the TACs of 60 out of the 67 ROIs were redefined into nine volume-weighted ROIs by combining the radioactivity at each timepoint according to the equation Bq¯=∑iαi×Bqi/∑iαi , where αi is the volume (in mm^3) of region i, and Bqi the counts per mm^3 of region i. The selection of ROIs was based on the widespread NMDA-R availability in the brain: frontal, temporal, occipital, and parietal cortices; hippocampus; thalamus; insula; brainstem; dorsal striatum; and cerebellum, as well as whole brain GM from the Hammers atlas. Standardized uptake values (SUV; equalling measured activity divided by injected dose per body weight) were calculated for whole brain GM.
Using the metabolite-corrected arterial plasma input function, all GM TACs were fitted to single-tissue (1T2k), two-tissue irreversible (2T3k), and reversible (2T4k) compartmental models, both with and without an additional parameter for fractional blood volume (VB). The non-metabolite-corrected arterial whole blood curve was used as input function for VB. The optimal tracer kinetic model for describing in vivo kinetics of [^18F]PK-209 was determined according to the Akaike Information Criterion (AIC). Depending on the model preference, outcome measures were the net influx constant (Ki = K1 k3/(k2 + k3)) or the distribution volume (VT=K1/k2(1+k3/k4)) . For subsequent group level analysis (e.g., TRT variability and ketamine effects), all scans were analyzed using the same, most preferred, tracer kinetic model. Non-displaceable distribution volumes (VND = K1/k2) as well as K1 and k3 values are also reported separately.
The absolute percentage TRT variability of kinetic parameters between test and retest scans was calculated using the equation TRT variability = 2 · (ρretest − ρtest)/(ρtest + ρretest) · 100, where ρ is the kinetic parameter of interest. The between-subject coefficient of variation was calculated as the standard deviation divided by the sample mean · 100. […]

CSc1ccc(Cl)c(NC(=N)N(C)c2cccc(OC[18F])c2)c1 [[^18F]PK-209, 3-(2-chloro-5-(methylthio)phenyl)-1-(3-([^18F]fluoromethoxy)phenyl)-1-methylguanidine]
selectivity for the ion channel of NMDA-R over other targets (ion channel of NMDA-R): high selectivity | Mean test K i ([1]; 2T3k_VB, population IF): 0.0152 min⁻¹ | Mean retest K i ([1]; 2T3k_VB, single scan IF): 0.0143 min⁻¹ | Mean test K i ([1]; 2T3k_VB, single scan IF): 0.0183 min⁻¹ | Mean retest K 1 ([1]; human, in vivo): 0.426 mL · cm^3 · min^−1 | Mean retest V ND ([1]; human, in vivo): 7.34 | Mean retest k 3 ([1]; human, in vivo): 0.0021 min⁻¹ | Mean test K 1 ([1]; human, in vivo): 0.473 mL · cm^3 · min^−1 | Mean test K i ([1]; human, in vivo): 0.0161 min⁻¹ | Mean test V ND ([1]; human, in vivo): 9.09 | Mean test k 3 ([1]; human, in vivo): 0.0021 min⁻¹ | peak uptake SUV ([1]; human, in vivo): 3.6-5.7 | time of peak uptake ([1]; human, in vivo): around 10 min | whole brain SUV90–120 ([1]; human, in vivo): 1.64 | brain activity as % of the peak ([1]; human, in vivo, 120 min): 25-40% | defluorination (radioactivity uptake in jaw and skull) ([1]; in vivo): no defluorination | K i ([1]; 2T3k_VB, population IF, retest scan): 0.0201 min⁻¹ | K i ([1]; 2T3k_VB, population IF, test scan): 0.0147 min⁻¹ and 0.0193 min⁻¹ | K i ([1]; 2T3k_VB, single scan IF, retest scan): 0.0182 min⁻¹ and 0.0152 min⁻¹ | K i ([1]; 2T3k_VB, within-subject IF, retest scan): 0.0162 min⁻¹ | K i ([1]; 2T3k_VB, within-subject IF, test scan): 0.0118 min⁻¹ | whole brain SUV90–120 ([1]; test scans, average): 1.68
